Here are results for eight molecules from patent publication US10000783B2, “Steviol glucosyltransferases and genes encoding the same” (SUNTORY HOLDINGS LIMITED, priority 2012, dated 2018).

One data set deals with UGT91D-like3. Briefly: Assay for enzyme activity of UGT91D-like3 on glycosyl acceptor substrates, LC-MS analysis. The format is biochemical, stevia. Conditions: for product formation on reaction of the glycosyl acceptor substrate with UGT91D-like3: 2 mM UDP-glucose, 0.1 mM glycosyl acceptor substrate, potassium phosphate buffer pH 7.0, 30° C., an hour, LC-MS. The procedure:
(§1) Standard conditions for the enzyme reaction were as follows: A reaction solution (2 mM UDP-glucose, 0.1 mM glycosyl acceptor substrate, 100 mM potassium phosphate buffer (pH 7.0) and 25 μl of purified UGT91D-like3 enzyme solution) was prepared in distilled water to become 50 μl, and reacted at 30° C. for an hour. LC-MS analysis was performed for 5 μl of the enzyme reaction solution under the following conditions.
Column: Waters Sunfire C18 3.5 um […]
Moving phase: A: MilliQ Water (+0.05% formic acid), B: MeCN
Gradient: linear density gradient from 15% to 55% in B density (20 mins.)
Steviolmonoside (peak B) was prepared by reacting UGT85C2 and steviol (peak A), and the steviolmonoside was reacted with UGT91D-like3. […] This peak was identified as steviolbioside based on the retention time and mass fragmentation pattern. […] It was confirmed that UGT91D-like3 had the activity of forming steviolbioside (peak C) by glucosylation of steviolmonoside (peak B).

For data set [1] the following is noted: reported in the prior art (Non-Patent Document 2); cited from earlier work.
A short description of data set [2]: Comparison in relative enzyme activity between recombinant UGT proteins, rubusoside as substrate. It is filed as biochemical, stevia. To be noted: for relative enzyme activity (amount of stevioside produced divided by amount of protein): glucosylation activity of UGT91D2e made 100%. The procedure: as §1
As given below, the Escherichia coli expression construct of UGT91D2e was prepared, and the enzyme activities of UGT91D2e and UGT91D-like3 were evaluated by the same manner as in EXAMPLES 3 and 4.
The enzyme activities were compared between the purified proteins of UGT91D-like3 and UGT91D2e expressed in Escherichia coli. Using rubusoside as substrate, the comparison was made under the same enzyme reaction conditions and analysis conditions as in EXAMPLE 4. A relative enzyme activity was calculated by dividing the amount of stevioside produced by the amount of the protein provided for the reaction.

Take `C=C1C[C@@]23CC[C@H]4[C@@](C)(CCC[C@@]4(C)C(=O)O[C@@H]4O[C@H](CO)[C@@H](O)[C@H](O)[C@H]4O)[C@@H]2CC[C@]1(O[C@@H]1O[C@H](CO)[C@@H](O)[C@H](O)[C@H]1O)C3` [rubusoside]: in the data set on UGT91D-like3, the “product formation on reaction of the glycosyl acceptor substrate with UGT91D-like3” value (“product formation on reaction” below) is “gave a new peak E”.

For the molecule `C=C1C[C@@]23CC[C@H]4[C@@](C)(CCC[C@@]4(C)C(=O)O)[C@@H]2CC[C@]1(O[C@@H]1O[C@H](CO)[C@@H](O)[C@H](O)[C@H]1O)C3` [steviolmonoside], the “product formation on reaction” value in the data set on UGT91D-like3 is reported as “a new product (peak C) was detected”.

Regarding `C=C1C[C@@]23CC[C@H]4[C@@](C)(CCC[C@@]4(C)C(=O)O)[C@@H]2CC[C@]1(O)C3` [steviol], in the data set on UGT91D-like3, the “product formation on reaction” value was “no product was detected”.

For the molecule `C=C1C[C@@]23CC[C@H]4[C@@](C)(CCC[C@@]4(C)C(=O)O)[C@@H]2CC[C@]1(O[C@@H]1O[C@H](CO)[C@@H](O)[C@H](O)[C@H]1O[C@@H]1O[C@H](CO)[C@@H](O)[C@H](O)[C@H]1O)C3` [steviolbioside], the “product formation on reaction” value with UGT91D-like3 is listed as “any new product was not detected”.

With `O=c1ccn([C@@H]2O[C@H](COP(=O)(O)OP(=O)(O)O[C@H]3OC[C@@H](O)[C@H](O)[C@H]3O)[C@@H](O)[C@H]2O)c(=O)[nH]1` [UDP-xylose], the “use as sugar donor by UGT91D-like3” value in the data set on UGT91D-like3 is listed as “did not use UDP-xylose as the sugar donor”.

B1: UGT91D1: known stevia glucosyltransferase, GENBANK Accession No. AY345980 (protein, UniProt Q6VAA8 1-485, looked up)
UDP-glycosyltransferase 91D1: MYNVTYHQNSKAMATSDSIVDDRKQLHVATFPWLAFGHILPFLQLSKLIAEKGHKVSFLSTTRNIQRLSSHISPLINVVQLTLPRVQELPEDAEATTDVHPEDIQYLKKAVDGLQPEVTRFLEQHSPDWIIYDFTHYWLPSIAASLGISRAYFCVITPWTIAYLAPSSDAMINDSDGRTTVEDLTTPPKWFPFPTKVCWRKHDLARMEPYEAPGISDGYRMGMVFKGSDCLLFKCYHEFGTQWLPLLETLHQVPVVPVGLLPPEIPGDEKDETWVSIKKWLDGKQKGSVVYVALGSEALVSQTEVVELALGLELSGLPFVWAYRKPKGPAKSDSVELPDGFVERTRDRGLVWTSWAPQLRILSHESVCGFLTHCGSGSIVEGLMFGHPLIMLPIFCDQPLNARLLEDKQVGIEIPRNEEDGCLTKESVARSLRSVVVENEGEIYKANARALSKIYNDTKVEKEYVSQFVDYLEKNARAVAIDHES
On to B1, for which, in data set [1], the activity for steviolmonoside result was “no activity”.

B2: UGT91D-like3: novel stevia glucosyltransferase, amino acid sequence SEQ ID NO: 2 (protein, listed as Stevia rebaudiana)
chain: MYNVTYHQNSKAMATSDSIVDDRKQLHVATFPWLAFGHILPYLQLSKLIAEKGHKVSFLSTTRNIQRLSSHISPLINVVQLTLPRVQELPEDAEATTDVHPEDIPYLKKASDGLQPEVTRFLEQHSPDWIIYDYTHYWLPSIAASLGISRAHFSVTTPWAIAYMGPSADAMINGSDGRTTVEDLTTPPKWFPFPTKVCWRKHDLARLVPYKAPGISDGYRMGLVLKGSDCLLSKCYHEFGTQWLPLLETLHQVPVVPVGLLPPEIPGDEKDETWVSIKKWLDGKQKGSVVYVALGSEVLVSQTEVVELALGLELSGLPFVWAYRKPKGPAKSDSVELPDGFVERTRDRGLVWTSWAPQLRILSHESVCGFLTHCGSGSIVEGLMFGHPLIMLPIFGDQPLNARLLEDKQVGIEIPRNEEDGCLTKESVARSLRSVVVEKEGEIYKANARELSKIYNDTKVEKEYVSQFVDYLEKNARAVAIDHES
In the case of B2, in data set [2], the “relative enzyme activity per protein amount higher than UGT91D2e” value came to 67% and the “relative enzyme activity (amount of stevioside produced divided by amount of protein)” value is given as 167%.

B3: UGT91D2e: prior art glucosyltransferase (Patent Document 3), SEQ ID NO: 32, short by the 12 amino acids (protein, listed as Stevia rebaudiana)
chain: MATSDSIVDDRKQLHVATFPWLAFGHILPYLQLSKLIAEKGHKVSFLSTTRNIQRLSSHISPLINVVQLTLPRVQELPEDAEATTDVHPEDIPYLKKASDGLQPEVTRFLEQHSPDWIIYDYTHYWLPSIAASLGISRAHFSVTTPWAIAYMGPSADAMINGSDGRTTVEDLTTPPKWFPFPTKVCWRKHDLARLVPYKAPGISDGYRMGLVLKGSDCLLSKCYHEFGTQWLPLLETLHQVPVVPVGLLPPEIPGDEKDETWVSIKKWLDGKQKGSVVYVALGSEVLVSQTEVVELALGLELSGLPFVWAYRKPKGPAKSDSVELPDGFVERTRDRGLVWTSWAPQLRILSHESVCGFLTHCGSGSIVEGLMFGHPLIMLPIFGDQPLNARLLEDKQVGIEIPRNEEDGCLTKESVARSLRSVVVEKEGEIYKANARELSKIYNDTKVEKEYVSQFVDYLEKNARAVAIDHES
Turning to B3, the “relative enzyme activity (amount of stevioside produced divided by amount of protein)” value in data set [2] is reported as 100%.
